{"source": "patent EP1372636B1", "about": "“METRONOMIC DOSING OF TAXANES FOR INHIBITING TUMOR GROWTH” (Bristol-Myers Squibb Company, priority 2001, dated 2002)", "key": {"[1]": {"system": "human umbilical vein endothelial cell (HUVEC)", "assay": "HUVEC proliferation (3H-thymidine incorporation)", "assay_type": "cell-based", "details": "for IC50: Homo sapiens, HUVEC, read-out: IC50 in Cells HUVEC", "quoted_text": "(§4) Primary human umbilical vein endothelial cells (HUVEC) were purchased from CLONETICS Inc. (San Diego, CA) and used at passage 2 to 3. Proliferation was measured using ^3H-thymidine incorporation in cells by pulsing twenty-four hours prior to harvesting cell cultures. The human breast carcinoma line H3396 was used to assess activity of compound on tumor cells. Cells (2 x 10^3) were plated on collagen IV coated 96 well plates. Twenty-four hours later, compounds were added at varying concentrations. After 48 hours, ^3H-thymidine was added and cells were allowed to incorporate this label over a twenty-four hour period. Cellular extracts were harvested onto glass filters and incorporated radioactivity was determined by counting in a Beta scintillation counter. The IC50, defined as the drug concentration that causes 50% inhibition of ^3H-thymidine incorporation, was extrapolated from the plotted data."}, "[2]": {"assay": "Oral bioavailability in the rat", "assay_type": "in vivo"}, "HUVEC": {"system": "HUVEC", "assay": "In vitro HUVEC tube formation on […]", "assay_type": "cell-based, human", "design": "key: C= complete; P= partial", "protocol": "Angiogenesis results in a network of functional blood vessels that contain red blood cells. In vitro assays that, in part, mimic that process have been established. Primary endothelial cells such as HUVEC when placed on […] (Collaborative Research, Inc.) form a three-dimensional network of tubes that align into cords. In this assay system, tube formation was evaluated on an extracellular protein matrix consisting of […] diluted 1:1 with culture media (EBM-2; CLONETICS, Inc.) and allowed to polymerize for 60 minutes at 37 C. […] Eighteen hours following the plating of cells, the media was removed and cultures were fixed in formalin. Inhibition of tubes on […] is evaluated on an inverted microscope using phase contrast lighting. To determine the effect of compounds in this assay, a descriptive approach was developed. […] Partial inhibition is defined as an incomplete network with a large number of single cells. Complete inhibition is defined as greater than 99% of cells occurring as single cells with no elongated or branching structures. The number of single cells occurring after vehicle treatment (control) is subtracted from the total number of single cells occurring in the treated groups prior to assessing the effects of test compounds for establishing background effects."}, "[3]": {"system": "human breast carcinoma line H3396", "assay": "H3396 tumor cell proliferation (3H-thymidine incorporation)", "assay_type": "cell-based", "quoted_text": "as §4"}, "[4]": {"system": "endothelial cells occurring in MATRIGEL plugs", "assay": "In vivo […] plug angiogenesis model (number of endothelial cells in plugs)", "design": "species or system athymic (nu/nu) Balb/c mice", "details": "q2dx5; for reduction of cell number in plugs: oral gavage", "protocol": "(§1) LX1 human lung tumor fragments that were maintained by serial subcutaneous passage in athymic (nu/nu) Balb/c mice were implanted subcutaneously as small fragments approximately 0.1 mm^3 in size. Tumor volume doubling time for this tumor in these studies was 2.8 days. When tumors reached the size range of 150-200 mm^3, liquid […] was injected subcutaneously on the side contralateral to the tumor. Treatment was initiated 24 hours later at varying doses and schedules. Prior to implanting, […] is prepared by placing solidified […] on ice overnight at 4 C in accordance with the method described by Passiniti et al. (Lab. Invest. 1992 67:519-28). At the liquid phase and while on ice, VEGF and bFGF (Peprotech, Inc. Rocky Hill, NJ) is added to the […] at final respective concentrations of 75 ng/ml and 300 ng/ml. Stock solutions of these growth factors are made fresh at […] in PBS. Twenty-four hours following final treatment, animals were sacrificed by cervical dislocation and […] plugs from treated and control animals were excised and fixed for at least 48 hours in 10% neutral buffered formalin. These plugs were then processed for paraffin embedding and sectioned at 5 µm thickness followed by staining with hematoxylin and eosin prior to quantitative analysis. The number of endothelial cells in plugs was quantitated using the IMAGEPRO PLUS software (Media Cybernetics, Inc., Silver Spring, MD) at a magnification of 20x. Fifty fields of view from each plug were used for counting the number of endothelial cells. The number of cells were summarized and compared statistically to controls.\n(§2) Angiogenesis is evaluated in these plugs as the number of endothelial cells migrating into plugs from compound treated groups relative to the vehicle treated group. Tumors were implanted for the purpose of monitoring the anti-tumor effects of these compounds throughout these studies in order to assure compound efficacy at the therapeutic doses.\n(§3) For TAXOL, normal saline was used as the diluent and delivery was made intravenously. For the oral taxane of Formula I, sterilized water was used as the diluent and delivery was by oral gavage."}, "[5]": {"assay": "In vivo […] plug angiogenesis model (number of endothelial cells in plugs)", "design": "species or system athymic (nu/nu) Balb/c mice", "details": "mouse, in vivo, read-out: maximum tolerated dose (MTD)", "protocol": "as §1, §2, §3"}, "[6]": {"assay": "Oral bioavailability in the dog", "assay_type": "in vivo"}, "[7]": {"system": "mammary 16/C murine carcinoma", "assay": "Staged subcutaneous mammary 16/C carcinoma in mice, gross log cell kill", "assay_type": "in vivo, C3H mice", "description": "The final concentrations of each component of the vehicle was as follows: CREMOPHOR 10%; ethanol 10%; aqueous 80%.\nC3H conventional mice were purchased from Harlan-Sprague Dawley (Indianapolis, IN) and fed mouse chow and water ad libitum.\nThe metastatic mammary 16/C murine carcinoma was propagated biweekly in C3H mice. Experiments were initiated by subcutaneous insertion by trocar of tumor fragments.\nFor in vivo tumor testing, the C3H mice were implanted subcutaneously with mammary 16/C tumor fragments. All treatments were initiated on Day 10 post-tumor implant, except for an untreated control group. All groups contained 8 mice. Tumors were measured once or twice weekly and dimensions were converted to weights using the formula Weight (milligrams)= a x b^2, where a=length and b=width (in millimeters). The median time for tumors within each group of mice to reach 1 gram was determined and the delays in median time to reach 1 gram tumor target size for treated (T) versus control (C) groups was calculated. These delays in tumor growth (T-C value in days) were further converted to gross log cell kill (LCK) values using the formula T-C/(tumor volume doubling time, TVDT, of the control group) x (3.32). A LCK of greater than or equal to 1 LCK was considered an active result. Cures were assessed at the end of each experiment and defined in the absence of a tumor mass of greater than 35 milligrams. Experiments were terminated more than 10 x TVDT following the completion of all treatments."}}, "note": "Read-outs that look alike come from different tables or passages of the source.", "data": [{"smiles": "COC(=O)O[C@@]12CO[C@@H]1C[C@H](O)[C@@]1(C)C(=O)[C@H](OC(C)=O)C3=C(C)[C@@H](OC(=O)[C@H](O)[C@@H](NC(=O)OC(C)(C)C)C(C)(C)C)C[C@@](O)([C@@H](OC(=O)c4ccccc4)[C@H]21)C3(C)C", "note": "[Formula I, 3'-tert-Butyl-3'-N-tert-butyloxycarbonyl-4-deacetyl-3'-dephenyl-3'-N-debenzoyl-4-O-methoxycarbonyl-paclitaxel]", "values": [{"measurement": "IC50", "setting": "[1]", "result": 2, "unit": "nM"}, {"measurement": "oral bioavailability", "setting": "[2]", "result": "good"}, {"measurement": "weight loss", "setting": "L2987 human lung tumor; 20 mg/kg orally, metronomic schedule q2dx15", "result": "no weight loss was observed"}, {"measurement": "tumor growth", "setting": "L2987 human lung tumor; 20 mg/kg orally, metronomic schedule q2dx15 (cumulative 300 mg/kg)", "result": "suppressed tumor growth"}, {"measurement": "weight loss", "setting": "L2987 human lung tumor; 60 mg/kg orally, standard schedule q2dx5", "result": "weight loss was also observed"}, {"measurement": "anti-tumor response", "setting": "L2987 human lung tumor; 60 mg/kg orally, standard schedule q2dx5 (cumulative 300 mg/kg), compared with metronomic regime", "result": "greater anti-tumor response"}, {"measurement": "Inhibition of HUVEC Tube Formation on MATRIGEL", "setting": "HUVEC; 0.0005µM", "result": "P"}, {"measurement": "Inhibition of HUVEC Tube Formation on MATRIGEL", "setting": "HUVEC; 0.0050µM", "result": "P"}, {"measurement": "Inhibition of HUVEC Tube Formation on MATRIGEL", "setting": "HUVEC; 0.0500µM", "result": "C"}, {"measurement": "Inhibition of HUVEC Tube Formation on MATRIGEL", "setting": "HUVEC; 0.5000µM", "result": "C"}, {"measurement": "Inhibition of HUVEC Tube Formation on MATRIGEL", "setting": "HUVEC; 5.000µM", "result": "C"}, {"measurement": "IC50", "setting": "[3]; H3396, read-out: IC50 in Cells H3396, 3H-thymidine incorporation, two separate experiments (two columns)", "result": 2, "unit": "nM"}, {"measurement": "reduction of cell number in plugs", "setting": "[4]; 18 mg/kg", "result": "greater than 50%"}, {"measurement": "reduction of cell number in plugs", "setting": "[4]; 36 mg/kg", "result": "greater than 50%"}, {"measurement": "reduction of cell number in plugs", "setting": "[4]; 60 mg/kg (MTD)", "result": "greater than 50%"}, {"measurement": "MTD", "setting": "[5]; po", "result": 60, "unit": "mg/kg"}, {"measurement": "oral bioavailability", "setting": "[6]", "result": "good"}]}, {"smiles": "CC(=O)O[C@H]1C(=O)[C@@]2(C)[C@H]([C@H](OC(=O)c3ccccc3)[C@]3(O)C[C@H](OC(=O)[C@H](O)[C@@H](NC(=O)c4ccccc4)c4ccccc4)C(C)=C1C3(C)C)[C@]1(OC(C)=O)CO[C@@H]1C[C@@H]2O", "note": "[TAXOL, paclitaxel]", "values": [{"measurement": "IC50", "setting": "[1]; 3H-thymidine incorporation, two separate experiments (two columns)", "result": 3, "unit": "nM"}, {"measurement": "H3396/HUVEC", "setting": "[1]; ratio of IC50 in H3396 to IC50 in HUVEC", "result": 0.88}, {"measurement": "Gross LCK", "setting": "[7]; Paclitaxel 20 mg/kg/inj qd 10-14 iv, no Formula I, Paclitaxel 20 mg/kg/inj qd 32-36 iv", "result": 4.5}, {"measurement": "Gross LCK", "setting": "[7]; Paclitaxel 20 mg/kg/inj qd 10-14 iv, no Formula I, Paclitaxel 30 mg/kg/inj qd 32-36 iv", "result": 4.7}, {"measurement": "Gross LCK", "setting": "[7]; Paclitaxel 30 mg/kg/inj qd 10-14 iv alone (single course)", "result": 1.9}, {"measurement": "cures/total", "setting": "[7]; Paclitaxel 30 mg/kg/inj qd 10-14 iv alone, Cures assessed on Day 60", "result": "2/8"}, {"measurement": "Gross LCK", "setting": "[7]; Paclitaxel 45 mg/kg/inj qd 10-14 iv alone (single course)", "result": 1.9}, {"measurement": "cures/total", "setting": "[7]; Paclitaxel 45 mg/kg/inj qd 10-14 iv alone, Cures assessed on Day 60 post tumor implant", "result": "1/8"}, {"measurement": "cures/total", "setting": "[7]; Paclitaxel 20 qd 10-14 iv, no Formula I, Paclitaxel 30 qd 32-36 iv, Cures assessed on Day 88", "result": "1/8"}, {"measurement": "cures/total", "setting": "[7]; Paclitaxel 30 qd 10-14 iv, no Formula I, Paclitaxel 30 qd 32-36 iv, Cures assessed on Day 88 post-tumor implant, listed as Paclitaxel", "result": "2/8"}, {"measurement": "cures/total", "setting": "[7]; Paclitaxel 30 qd 10-14 iv, no Formula I, Paclitaxel 30 qd 32-36 iv, Cures assessed on Day 88 post-tumor implant, listed as paclitaxel", "result": "2 of 8"}, {"measurement": "MTD regimen", "setting": "[7]; qdx5, iv, beginning on Day 10 post-tumor implant", "result": 45, "unit": "mg/kg/injection"}, {"measurement": "Inhibition of HUVEC Tube Formation on MATRIGEL", "setting": "HUVEC; 0.0005µM", "result": "P"}, {"measurement": "Inhibition of HUVEC Tube Formation on MATRIGEL", "setting": "HUVEC; 0.0050µM", "result": "P"}, {"measurement": "Inhibition of HUVEC Tube Formation on MATRIGEL", "setting": "HUVEC; 0.0500µM", "result": "C"}, {"measurement": "Inhibition of HUVEC Tube Formation on MATRIGEL", "setting": "HUVEC; 0.5000µM", "result": "C"}, {"measurement": "Inhibition of HUVEC Tube Formation on MATRIGEL", "setting": "HUVEC; 5.000µM", "result": "C"}, {"measurement": "IC50", "setting": "[3]; H3396, 3H-thymidine incorporation, two separate experiments (two columns), read-out: IC50 in Cells H3396", "result": 3, "unit": "nM"}, {"measurement": "reduction in cell number in MATRIGEL plugs compared to control groups", "setting": "[4]; 24 mg/kg (MTD), intravenously", "result": "greater than 50%"}, {"measurement": "MTD", "setting": "[5]; athymic (nu/nu) Balb/c, intravenous", "result": 24, "unit": "mg/kg"}]}]}
